Format in all cases: in vivo, mouse
Assay [1] deals with 4T1 tumors. As to the kind of experiment: Tumor regression in 4T1 syngeneic TNBC tumor models. Conditions: antibodies i.p., similar dose (FIGS. 6I and 6J). The protocol: FIGS. 4A-4K. DR5 agonist activated ROCK1 functions to help PD-L1 surface mobilization. (FIGS. 4A and 4B) KMTR2 and lexatumumab treated MDA-MB-436 and OVCAR3 (respectively) lysates for indicated early time points were analyzed for caspase-8, caspase-3, ROCK1, pMLC, PARP, PD-L1 and CMTM6 etc. as indicated. Vertical arrows indicate sequential kinetics of caspase-8, ROCK1, and caspase-3 activation, arrows with “n.s.” below them indicate nonspecific band by ROCK1 antibody. (FIG. 4C) OVCAR3 cells were treated with pMLC activating ionophore A23187 (positive control) and lexatumumab ±ROCK1 inhibitors or ±rDR5 or ±rFOLR1. Lysates were later analyzed for ROCK1, pMLC, caspase-3 and PARP with GAPDH as loading control. (FIG. 4D) MDA-MB-436 and OVCAR3 cells were treated with indicated ROCK1 inhibitors 2 hours prior to DR5 agonist KMTR2 treatment. After 4 hours flow cytometry was used to analyze surface PD-L1. […] Relative luciferase signal was quantified and plotted after subtraction of background signal from untreated cells. […] Tumor volumes were quantified at indicated days by caliper measurements. […] Statistical significance in FIG. 4J was determined by unpaired student t-test and in FIG. 4K using two-tailed […] Wilcoxon Mann-Whitney test. […]
FIGS. 6A-6M. […] CD8/CD45 and CD4/CD45 expressing cells were measured by flow cytometry. […] Harvested tumors homogenized followed by quantitation. […]

Assay [2] concerns chi-G4S-DR5 stable MC38 tumors. As to the kind of experiment: Immunoblotting of Chi-G4S-DR5 stable MC38 tumor lysates (granzyme-b). Conditions: size matched tumors, 6 total doses (FIG. 18A).
In assay [3] the test system is chi-G4S-DR5 stable 4T1 tumors. As to the kind of experiment: Immunoblotting of Chi-G4S-DR5 stable 4T1 tumor lysates (granzyme-b, Foxp3). Conditions: size matched tumors, 6 total doses (FIG. 6D).

Turning to “avelumab: clinical anti-PD-L1 antibody (human/mouse cross-reactive); VL and VH SEQ ID NOs: 9 and 10”, the tumor regression result in assay [1] is given as “only stabilized the tumors”. Besides, the “granzyme-b activity in tumors compared to DR5 agonist alone” value in assay [2] and in assay [3] was “significantly higher granzyme-b activity” in each case.
